The NIST ThermoML archive (doi:10.1016/j.fluid.2010.07.005)

Experiments:
[1] = excess molar enthalpy (molar enthalpy of mixing); xn = mol fraction of the nth substance listed; conditions: 298.15 K, 101.33 kPa, Liquid, Flow calorimetry
[2] = xn = mol fraction of the nth substance listed; conditions: 101.33 kPa, Liquid; for viscosity: Capillary tube (Ostwald / Ubbelohde) method
[3] = molar heat capacity at constant pressure; xn = mol fraction of the nth substance listed; conditions: 101.33 kPa, Liquid, Vacuum adiabatic calorimetry

COP(=O)([O-])OC.Cn1cc[n+](C)c1 [1,3-dimethylimidazolium dimethylphosphate] + CO
[1]
Conditions	excess molar enthalpy [kcal/mol]
x1 = 0.165	-0.539
x1 = 0.28	-0.779
x1 = 0.466	-0.783
x1 = 0.593	-0.687
x1 = 0.744	-0.475
x1 = 1	0

Conditions	molar heat capacity at constant pressure, 298.15 K [J/K/mol]	molar heat capacity at constant pressure, 303.15 K [J/K/mol]	molar heat capacity at constant pressure, 313.15 K [J/K/mol]	molar heat capacity at constant pressure, 323.15 K [J/K/mol]	viscosity, 298.15 K [mPa·s]	viscosity, 303.15 K [mPa·s]	viscosity, 308.15 K [mPa·s]	viscosity, 313.15 K [mPa·s]	viscosity, 318.15 K [mPa·s]	viscosity, 323.15 K [mPa·s]
[2], x1 = 0.203	–	–	–	–	3.8	3.32	3.06	2.84	2.6	2.4
[2], x1 = 0.399	–	–	–	–	18.33	16.56	12.43	11.08	9.76	8.79
[2], x1 = 0.603	–	–	–	–	53.9	38.18	31.37	25.8	22.86	18.45
[2], x1 = 0.805	–	–	–	–	145.63	98.68	75.4	61.57	49.9	40.2
[2], x1 = 1	–	–	–	–	271.86	188.3	139.49	110.25	84.44	69.99
[3], x1 = 0.202	130.82	144.77	169.01	190.07	–	–	–	–	–	–
[3], x1 = 0.399	177.61	191.43	214.09	233.4	–	–	–	–	–	–
[3], x1 = 0.591	215.46	225.28	246.8	262.54	–	–	–	–	–	–
[3], x1 = 0.81	256.75	261.78	274.8	290.24	–	–	–	–	–	–
[3], x1 = 1	282.83	296.61	310.83	321.05	–	–	–	–	–	–

mass density [kg/m3], [2], Specific gravity balance
Conditions	298.15 K	303.15 K	308.15 K	313.15 K	318.15 K	323.15 K
x1 = 0.203	1040.2	1037.1	1033.2	1030.2	1027.6	1025.1
x1 = 0.399	1158.3	1155.2	1151.2	1148.1	1147	1140.1
x1 = 0.603	1205.5	1201.4	1197.8	1194.1	1190.8	1188
x1 = 0.805	1236.4	1233	1229.7	1226.4	1223.1	1219.8
x1 = 1	1258.7	1255.9	1253	1249.1	1245.2	1241.5

COP(=O)([O-])OC.Cn1cc[n+](C)c1 [1,3-dimethylimidazolium dimethylphosphate] + CCO
[1]
Conditions	excess molar enthalpy [kcal/mol]
x1 = 0.177	-0.329
x1 = 0.307	-0.481
x1 = 0.524	-0.485
x1 = 0.665	-0.377
x1 = 0.8	-0.241
x1 = 1	0

Conditions	molar heat capacity at constant pressure, 298.15 K [J/K/mol]	molar heat capacity at constant pressure, 303.15 K [J/K/mol]	molar heat capacity at constant pressure, 313.15 K [J/K/mol]	molar heat capacity at constant pressure, 323.15 K [J/K/mol]	viscosity, 298.15 K [mPa·s]	viscosity, 303.15 K [mPa·s]	viscosity, 308.15 K [mPa·s]	viscosity, 313.15 K [mPa·s]	viscosity, 318.15 K [mPa·s]	viscosity, 323.15 K [mPa·s]
[2], x1 = 0.202	–	–	–	–	6.83	5.98	5.3	4.83	4.32	3.94
[2], x1 = 0.414	–	–	–	–	22.99	19	16.21	14.15	12.35	11.03
[2], x1 = 0.562	–	–	–	–	48.76	38.45	30.8	26.47	22.23	19.27
[2], x1 = 0.807	–	–	–	–	137.88	105.91	80.22	63.76	50.57	42.11
[2], x1 = 1	–	–	–	–	271.86	188.3	139.49	110.25	84.44	69.99
[3], x1 = 0.224	145.29	153.59	172.15	190.19	–	–	–	–	–	–
[3], x1 = 0.408	193.74	205.3	227.82	247.28	–	–	–	–	–	–
[3], x1 = 0.596	235.91	247.99	280.92	299.34	–	–	–	–	–	–
[3], x1 = 0.803	258.54	267.73	289.85	304.85	–	–	–	–	–	–
[3], x1 = 1	282.83	296.61	310.83	321.05	–	–	–	–	–	–

mass density [kg/m3], [2], Specific gravity balance
Conditions	298.15 K	303.15 K	308.15 K	313.15 K	318.15 K	323.15 K
x1 = 0.202	1000.6	996.6	992.7	989.7	986.9	983.2
x1 = 0.414	1116.5	1113.4	1109.8	1106.6	1103.5	1098.4
x1 = 0.562	1166.7	1163.4	1159.7	1156.2	1152.4	1148.5
x1 = 0.807	1223.2	1219.5	1216.8	1213.8	1211.4	1207.5
x1 = 1	1258.7	1255.9	1253	1249.1	1245.2	1241.5

COP(=O)([O-])OC.Cn1cc[n+](C)c1 [1,3-dimethylimidazolium dimethylphosphate] + O
[1]
Conditions	excess molar enthalpy [kcal/mol]
x1 = 0.104	-1.12
x1 = 0.209	-1.42
x1 = 0.369	-1.54
x1 = 0.498	-1.45
x1 = 0.604	-1.28
x1 = 1	0

Conditions	molar heat capacity at constant pressure, 298.15 K [J/K/mol]	molar heat capacity at constant pressure, 303.15 K [J/K/mol]	molar heat capacity at constant pressure, 313.15 K [J/K/mol]	molar heat capacity at constant pressure, 323.15 K [J/K/mol]	viscosity, 298.15 K [mPa·s]	viscosity, 303.15 K [mPa·s]	viscosity, 308.15 K [mPa·s]	viscosity, 313.15 K [mPa·s]	viscosity, 318.15 K [mPa·s]	viscosity, 323.15 K [mPa·s]
[2], x1 = 0.252	–	–	–	–	40.02	32.61	24.46	20.28	16.97	14.5
[2], x1 = 0.428	–	–	–	–	74.43	55.22	43.51	35.23	27.92	23.63
[2], x1 = 0.617	–	–	–	–	145.21	110.23	82.04	66.13	51.66	41.92
[2], x1 = 0.795	–	–	–	–	197.92	138.81	104.59	80.27	63.01	50.35
[2], x1 = 1	–	–	–	–	271.86	188.3	139.49	110.25	84.44	69.99
[3], x1 = 0.21	116.48	124.21	147.96	171.34	–	–	–	–	–	–
[3], x1 = 0.375	143.19	151.23	167.21	182.63	–	–	–	–	–	–
[3], x1 = 0.57	197.42	205.75	220.8	232.9	–	–	–	–	–	–
[3], x1 = 0.821	255.8	267.68	284.76	298.31	–	–	–	–	–	–
[3], x1 = 1	282.83	296.61	310.83	321.05	–	–	–	–	–	–

mass density [kg/m3], [2], Speicific gravity balance
Conditions	298.15 K	303.15 K	308.15 K	313.15 K	318.15 K	323.15 K
x1 = 0.252	1233.4	1231	1227.9	1224	1220.8	1216.8
x1 = 0.428	1241.5	1239.4	1236.2	1233.6	1230.5	1226.2
x1 = 0.617	1248.5	1245.8	1241.8	1239.3	1236.1	1232.9
x1 = 0.795	1253.6	1250.5	1247.2	1243.9	1241.1	1236.8
x1 = 1	1258.7	1255.9	1253	1249.1	1245.2	1241.5
